Values quoted from earlier work, collected in patent US4032635A, “Pharmaceutical method for the therapy of immune diseases” (Zaidan Hojin Biseibutsu Kagaku Kenkyu Kai, priority 1975, dated 1977).

System: MS and related autoimmune diseases
Conditions: long-term administration; cited from earlier work

## ACTH: presently applied to patients with MS and related autoimmune diseases (SYSMEHFRWGKPVGKKRRPVKVYPNGAEDESAEAFPLEF; Corticotropin; UniProt P01189 138-176, looked up)
  effects in patients with MS: effects are limited due to serious side-effects caused by long-term administration of the drug
